Test system: cancer-related neuropathic pain
Experiment: Open label dose escalation study of flupirtine, case studies JE and RM
Details: flupirtine 100 mg qid; for neuropathic discriminant function score: >0 = neuropathic, day 1 baseline 0.262; for electric pain score / freezing pain score / numbness score / score for increased pain due to touch / score for increased pain due to weather changes / squeezing pain score / LEAST PAIN LAST 24 HRS: day 1 baseline 0; for PERCENTAGE PAIN RELIEF LAST 24 HOURS / WORST PAIN SCORE LAST 24 HOURS: day 1 baseline 10; for score for overly sensitive to touch / tingling pain score: day 1 baseline 20; for burning pain score / overwhelming pain score: day 1 baseline 90; for for shooting pain score / unpleasant pain score: day 1 baseline 100; for SCORE RELATIONSHIPS / SCORE MOOD / SCORE ENJOYMENT / SCORE SLEEP / SCORE WALKING / SCORE GENERAL ACTIVITY / SCORE TOTAL ACTIVITY: pain interference 1-10; for SCORE RELATIONSHIPS / SCORE NAUSEA / WHO PERFORMANCE STATUS: day 1 baseline 3; for SCORE MOOD / SCORE POOR APPETITE / SCORE UN[…] GAIT / PAIN SCORE RIGHT NOW: day 1 baseline 4; for SCORE ENJOYMENT / SCORE SLEEP: day 1 baseline 6; for SCORE WALKING: day 1 baseline 7; for SCORE GENERAL ACTIVITY / SCORE TOTAL ACTIVITY / AVERAGE PAIN LAST 24 HOURS: day 1 baseline 8; for SCORE CONSTIPATION / SCORE INDIGESTION / SCORE POOR CONCENTRATION / SCORE DROWSINESS / SCORE NAUSEA / SCORE POOR APPETITE / SCORE UN[…] GAIT: scale 1-4; for SCORE CONSTIPATION / SCORE INDIGESTION / SCORE POOR CONCENTRATION: day 1 baseline 1; for SCORE DROWSINESS: day 1 baseline 2; for LEAST PAIN LAST 24 HRS / PAIN SCORE RIGHT NOW / AVERAGE PAIN LAST 24 HOURS / WORST PAIN SCORE LAST 24 HOURS: scale to 10; for WHO PERFORMANCE STATUS: 0=fully active, 4=completely disabled

Q: Which “neuropathic discriminant function score” value (RM day 2) does the source give for `CCOC(=O)Nc1ccc(NCc2ccc(F)cc2)nc1N` [flupirtine] here?
A: −0.228

Q: And the electric pain score (RM day 2)?
A: 0

Q: And the freezing pain score (RM day 2)?
A: 0

Q: What about the numbness score (RM day 2) of the same compound?
A: 0

Q: And the “score for increased pain due to touch” value (RM day 2)?
A: 0

Q: What about the “score for increased pain due to weather changes” value (RM day 2) of the same compound?
A: 0

Q: And the squeezing pain score (RM day 2)?
A: 0

Q: And the “PERCENTAGE PAIN RELIEF LAST 24 HOURS” value (RM day 2)?
A: 15%

Q: And the “score for overly sensitive to touch” value (RM day 2)?
A: 0

Q: What about the tingling pain score (RM day 2) of the same compound?
A: 0

Q: And the burning pain score (RM day 2)?
A: 70

Q: What about the overwhelming pain score (RM day 2) of the same compound?
A: 70

Q: What about the “for shooting pain score” value (RM day 2) of the same compound?
A: 80

Q: And the unpleasant pain score (RM day 2)?
A: 95

Q: What about the “SCORE RELATIONSHIPS” value (RM day 2) of the same compound?
A: 3

Q: What about the “SCORE MOOD” value (RM day 2) of the same compound?
A: 4

Q: What about the “SCORE ENJOYMENT” value (RM day 2) of the same compound?
A: 4

Q: And the “SCORE SLEEP” value (RM day 2)?
A: 6

Q: And the “SCORE WALKING” value (RM day 2)?
A: 6

Q: And the “SCORE GENERAL ACTIVITY” value (RM day 2)?
A: 6

Q: And the “SCORE TOTAL ACTIVITY” value (RM day 2)?
A: 6

Q: What about the “SCORE CONSTIPATION” value (RM day 2) of the same compound?
A: 1

Q: What about the “SCORE INDIGESTION” value (RM day 2) of the same compound?
A: 1

Q: What about the “SCORE POOR CONCENTRATION” value (RM day 2) of the same compound?
A: 3

Q: And the “SCORE DROWSINESS” value (RM day 2)?
A: 3

Q: What about the “SCORE NAUSEA” value (RM day 2) of the same compound?
A: 1

Q: What about the “SCORE POOR APPETITE” value (RM day 2) of the same compound?
A: 3

Q: What about the “SCORE UN[…] GAIT” value (RM day 2) of the same compound?
A: 4

Q: What about the “LEAST PAIN LAST 24 HRS” value (RM day 2) of the same compound?
A: 0

Q: And the “PAIN SCORE RIGHT NOW” value (RM day 2)?
A: 6

Q: And the “AVERAGE PAIN LAST 24 HOURS” value (RM day 2)?
A: 5

Q: What about the “WORST PAIN SCORE LAST 24 HOURS” value (RM day 2) of the same compound?
A: 8

Q: What about the “WHO PERFORMANCE STATUS” value (RM day 3) of the same compound?
A: 3

Q: And the “neuropathic discriminant function score” value (RM day 3)?
A: −1.008

Q: What about the electric pain score (RM day 3) of the same compound?
A: 0

Q: And the freezing pain score (RM day 3)?
A: 0

Q: What about the numbness score (RM day 3) of the same compound?
A: 0

Q: And the “score for increased pain due to touch” value (RM day 3)?
A: 0

Q: What about the “score for increased pain due to weather changes” value (RM day 3) of the same compound?
A: 0

Q: What about the squeezing pain score (RM day 3) of the same compound?
A: 0

Q: What about the “PERCENTAGE PAIN RELIEF LAST 24 HOURS” value (RM day 3) of the same compound?
A: 15%

Q: What about the “score for overly sensitive to touch” value (RM day 3) of the same compound?
A: 0

Q: What about the tingling pain score (RM day 3) of the same compound?
A: 0

Q: What about the burning pain score (RM day 3) of the same compound?
A: 0

Q: What about the overwhelming pain score (RM day 3) of the same compound?
A: 50

Q: And the “for shooting pain score” value (RM day 3)?
A: 20

Q: And the unpleasant pain score (RM day 3)?
A: 75

Q: What about the “SCORE RELATIONSHIPS” value (RM day 3) of the same compound?
A: 3

Q: And the “SCORE MOOD” value (RM day 3)?
A: 4

Q: What about the “SCORE ENJOYMENT” value (RM day 3) of the same compound?
A: 4

Q: And the “SCORE SLEEP” value (RM day 3)?
A: 1

Q: And the “SCORE WALKING” value (RM day 3)?
A: 6

Q: And the “SCORE GENERAL ACTIVITY” value (RM day 3)?
A: 5

Q: What about the “SCORE TOTAL ACTIVITY” value (RM day 3) of the same compound?
A: 5

Q: What about the “SCORE CONSTIPATION” value (RM day 3) of the same compound?
A: 1

Q: What about the “SCORE INDIGESTION” value (RM day 3) of the same compound?
A: 1

Q: And the “SCORE POOR CONCENTRATION” value (RM day 3)?
A: 1

Q: And the “SCORE DROWSINESS” value (RM day 3)?
A: 2

Q: And the “SCORE NAUSEA” value (RM day 3)?
A: 1

Q: And the “SCORE POOR APPETITE” value (RM day 3)?
A: 1

Q: What about the “SCORE UN[…] GAIT” value (RM day 3) of the same compound?
A: 4

Q: And the “LEAST PAIN LAST 24 HRS” value (RM day 3)?
A: 0

Q: What about the “PAIN SCORE RIGHT NOW” value (RM day 3) of the same compound?
A: 8

Q: And the “AVERAGE PAIN LAST 24 HOURS” value (RM day 3)?
A: 8

Q: And the “WORST PAIN SCORE LAST 24 HOURS” value (RM day 3)?
A: 8

Q: What about the “WHO PERFORMANCE STATUS” value (RM day 4) of the same compound?
A: 3

Q: What about the “neuropathic discriminant function score” value (RM day 4) of the same compound?
A: −1.138

Q: And the electric pain score (RM day 4)?
A: 0

Q: And the freezing pain score (RM day 4)?
A: 0

Q: What about the numbness score (RM day 4) of the same compound?
A: 0

Q: And the “score for increased pain due to touch” value (RM day 4)?
A: 0

Q: What about the “score for increased pain due to weather changes” value (RM day 4) of the same compound?
A: 0

Q: What about the squeezing pain score (RM day 4) of the same compound?
A: 0

Q: What about the “PERCENTAGE PAIN RELIEF LAST 24 HOURS” value (RM day 4) of the same compound?
A: 75%

Q: And the “score for overly sensitive to touch” value (RM day 4)?
A: 0

Q: What about the tingling pain score (RM day 4) of the same compound?
A: 0

Q: And the burning pain score (RM day 4)?
A: 0

Q: What about the overwhelming pain score (RM day 4) of the same compound?
A: 30

Q: And the “for shooting pain score” value (RM day 4)?
A: 0

Q: And the unpleasant pain score (RM day 4)?
A: 60

Q: And the “SCORE RELATIONSHIPS” value (RM day 4)?
A: 3

Q: And the “SCORE MOOD” value (RM day 4)?
A: 2

Q: What about the “SCORE ENJOYMENT” value (RM day 4) of the same compound?
A: 3

Q: And the “SCORE SLEEP” value (RM day 4)?
A: 2

Q: And the “SCORE WALKING” value (RM day 4)?
A: 5

Q: What about the “SCORE GENERAL ACTIVITY” value (RM day 4) of the same compound?
A: 5

Q: And the “SCORE TOTAL ACTIVITY” value (RM day 4)?
A: 5

Q: What about the “SCORE CONSTIPATION” value (RM day 4) of the same compound?
A: 3

Q: And the “SCORE INDIGESTION” value (RM day 4)?
A: 1

Q: And the “SCORE POOR CONCENTRATION” value (RM day 4)?
A: 1

Q: And the “SCORE DROWSINESS” value (RM day 4)?
A: 1

Q: And the “SCORE NAUSEA” value (RM day 4)?
A: 2

Q: What about the “SCORE POOR APPETITE” value (RM day 4) of the same compound?
A: 1

Q: And the “SCORE UN[…] GAIT” value (RM day 4)?
A: 4

Q: And the “LEAST PAIN LAST 24 HRS” value (RM day 4)?
A: 0

Q: And the “PAIN SCORE RIGHT NOW” value (RM day 4)?
A: 2.5

Q: What about the “AVERAGE PAIN LAST 24 HOURS” value (RM day 4) of the same compound?
A: 8

Q: What about the “WORST PAIN SCORE LAST 24 HOURS” value (RM day 4) of the same compound?
A: 8

Q: What about the “WHO PERFORMANCE STATUS” value (RM day 5) of the same compound?
A: 3

Q: And the “neuropathic discriminant function score” value (RM day 5)?
A: −1.003

Q: What about the electric pain score (RM day 5) of the same compound?
A: 0

Q: What about the freezing pain score (RM day 5) of the same compound?
A: 0

Q: What about the numbness score (RM day 5) of the same compound?
A: 0

Q: And the “score for increased pain due to touch” value (RM day 5)?
A: 0

Q: And the “score for increased pain due to weather changes” value (RM day 5)?
A: 0

Q: What about the squeezing pain score (RM day 5) of the same compound?
A: 0

Q: And the “PERCENTAGE PAIN RELIEF LAST 24 HOURS” value (RM day 5)?
A: 65%

Q: And the “score for overly sensitive to touch” value (RM day 5)?
A: 0

Q: What about the tingling pain score (RM day 5) of the same compound?
A: 0

Q: And the burning pain score (RM day 5)?
A: 0

Q: And the overwhelming pain score (RM day 5)?
A: 25

Q: And the “for shooting pain score” value (RM day 5)?
A: 0

Q: What about the unpleasant pain score (RM day 5) of the same compound?
A: 80

Source: patent US8268821B2, “Methods and compositions” (priority 2003, dated 2012)
